Experimental data published in patent US10251394B2, “Molecules having pesticidal utility, and intermediates, compositions, and processes, related thereto” (Dow AgroSciences LLC, priority 2016, dated 2019).

Assays:
Format in all cases: in vivo
[1] = test system: Beet Armyworm (Spodoptera exigua); experiment: Bioassay on Beet Armyworm (BAW), 128-well diet tray assay; details: Beet Armyworm, Table ABC, read-out: BAW rating
Method in brief: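 Percent mortality, averaged over eight wells, was scored after five to seven days at 25° C under 14:10 light-dark. Each well's diet carried 50 μg/cm^2 of test molecule applied in acetone-water (90:10) and dried before one to five second-instar larvae were added.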

[2] = test system: Cabbage Looper (Trichoplusia ni); experiment: Bioassay on Cabbage Looper (CL), 128-well diet tray assay; details: Cabbage Looper, Table ABC, read-out: CL rating
Method in brief: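 Mortality after five to seven days at 25° C (14:10 photoperiod), averaged over eight wells per compound. Diet in each well carried 50 μg/cm^2 of dried test molecule and received one to five second-instar larvae.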

[3] = test system: Yellow Fever Mosquito (Aedes aegypti); experiment: Bioassay on Yellow Fever Mosquito (YFM) larvae, 96-well plate; details: Table ABC
Experimental: Example C: Bioassays on Yellow Fever Mosquito (Aedes Aegypti, AEDSAE) (“YFM”)
Certain molecules disclosed in this document were tested against YFM using procedures described in the following paragraph. In the reporting of the results, the “GPA & YFM Rating Table” was used (See Table Section).
Master plates containing 400 μg of a molecule dissolved in 100 μL of dimethyl sulfoxide (DMSO) (equivalent to a 4000 ppm solution) are used. A master plate of assembled molecules contains 15 μL per well. To this plate, 135 μL of a 90:10 water:acetone mixture is added to each well. A robot (Biomek® NXP Laboratory Automation Workstation) is programmed to dispense 15 μL aspirations from the master plate into an empty 96-well shallow plate (“daughter” plate). There are 6 reps (“daughter” plates) created per master. The created daughter plates are then immediately infested with YFM larvae.
The day before plates are to be treated, mosquito eggs are placed in Millipore water containing liver powder to begin hatching (4 g. into 400 mL). After the daughter plates are created using the robot, they are infested with 220 μL of the liver powder/larval mosquito mixture (about 1 day-old larvae). After plates are infested with mosquito larvae, a non-evaporative lid is used to cover the plate to reduce drying. Plates are held at room temperature for 3 days prior to grading. After 3 days, each well is observed and scored based on mortality. The results are indicated in the table entitled “Table ABC: Biological Results” (See Table Section).

| Compound | pest or weed control at 50 µg/cm2 [1] [%] | pest or weed control at 50 µg/cm2 [2] [%] | YFM rating [3] |
| --- | --- | --- | --- |
| C[C@@H](NC(=O)c1ccc(/C(F)=C/C(c2cc(Br)cc(Br)c2)C(F)(F)F)cc1C(F)(F)F)C(=O)N(C)CC(F)(F)F (stereo partly drawn) [F83, 4-((Z)-3-(3,5-Dibromophenyl)-1,4,4,4-tetrafluorobut-1-en-1-yl)-N—((R)-1-(methyl(2,2,2-trifluoroethyl)amino)-1-oxopropan-2-yl)-2-(trifluoromethyl)benzamide] | 50 to 100 | 50 to 100 | A (80-100) |
| Cc1cc(C(/C=C(\F)c2ccc(C(=O)N[C@H](C)C(=O)N(C)CC(F)(F)F)c(C(F)(F)F)c2)C(F)(F)F)cc(C)c1Cl (stereo partly drawn) [F102, 4-((Z)-3-(4-Chloro-3,5-dimethylphenyl)-1,4,4,4-tetrafluorobut-1-en-1-yl)-N—((R)-1-(methyl(2,2,2-trifluoroethyl)amino)-1-oxopropan-2-yl)-2-(trifluoromethyl)benzamide] | 50 to 100 | 50 to 100 | A (80-100) |
| CN(CC(F)(F)F)C(=O)C1(NC(=O)c2ccc(/C(F)=C/C(c3ccc(Cl)c(F)c3)C(F)(F)F)cc2C(F)(F)F)CC1 (stereo not drawn) [PF22, (Z)-4-(3-(4-Chloro-3-fluorophenyl)-1,4,4,4-tetrafluorobut-1-en-1-yl)-N-(1-(methyl(2,2,2-trifluoroethyl)carbamoyl)cyclopropyl)-2-(trifluoromethyl)benzamide] | 50 to 100 | 50 to 100 | B (More than 0-Less than 80) |
| O=C(NCC(=S)NCC(F)(F)F)c1ccc(/C(F)=C/C(c2cc(Cl)c(Cl)c(Cl)c2)C(F)(F)F)cc1C(F)(F)F (stereo not drawn) [PF94, (Z)-4-(1,4,4,4-tetrafluoro-3-(3,4,5-trichlorophenyl)but-1-en-1-yl)-N-(2-thioxo-2-((2,2,2-trifluoroethyl)amino)ethyl)-2-(trifluoromethyl)benzamide] | 50 to 100 | 50 to 100 | A (80-100) |
| C[C@@H](NC(=O)c1ccc(/C(F)=C/C(c2ccc(Cl)c(Cl)c2)C(F)(F)F)cc1C(F)(F)F)C(=O)NCC(F)(F)F (stereo partly drawn) [F42, 4-((Z)-3-(3,4-Dichlorophenyl)-1,4,4,4-tetrafluorobut-1-en-1-yl)-N—((R)-1-oxo-1-((2,2,2-trifluoroethyl)amino)propan-2-yl)-2-(trifluoromethyl)benzamide] | 50 to 100 | 50 to 100 | A (80-100) |
| CN(CC(F)(F)F)C(=O)CNC(=O)c1ccc(/C(F)=C/C(c2cc(Cl)c(F)c(Cl)c2)C(F)(F)F)cc1C(F)(F)F (stereo not drawn) [F82, (Z)-4-(3-(3,5-Dichloro-4-fluorophenyl)-1,4,4,4-tetrafluorobut-1-en-1-yl)-N-(2-(methyl(2,2,2-trifluoroethyl)amino)-2-oxoethyl)-2-(trifluoromethyl)benzamide] | 50 to 100 | 50 to 100 | A (80-100) |
| CN(CC(F)(F)F)C(=O)CN(C)C(=O)c1ccc(/C(F)=C/C(c2cc(Cl)c(Cl)c(Cl)c2)C(F)(F)F)cc1C(F)(F)F (stereo not drawn) [F99, (Z)—N-Methyl-N-(2-(methyl(2,2,2-trifluoroethyl)amino)-2-oxoethyl)-4-(1,4,4,4-tetrafluoro-3-(3,4,5-trichlorophenyl)but-1-en-1-yl)-2-(trifluoromethyl)benzamide] | 50 to 100 | 50 to 100 | A (80-100) |
| C=Cc1c(Cl)cc(C(/C=C(\F)c2ccc(C(=O)NCC(=O)NCC(F)(F)F)c(C(F)(F)F)c2)C(F)(F)F)cc1Cl (stereo not drawn) [F61, (Z)-4-(3-(3,5-Dichloro-4-vinylphenyl)-1,4,4,4-tetrafluorobut-1-en-1-yl)-N-(2-oxo-2-((2,2,2-trifluoroethyl)amino)ethyl)-2-(trifluoromethyl)benzamide] | 50 to 100 | 50 to 100 | A (80-100) |
| O=C(N[C@@H]1CON(CC(F)(F)F)C1=O)c1ccc(/C(F)=C/C(c2cc(Cl)c(C(F)F)c(Cl)c2)C(F)(F)F)cc1C(F)(F)F (stereo partly drawn) [F143, 4-((2)-3-(3,5-Dichloro-4-(difluoromethyl)phenyl)-1,4,4,4-tetrafluorobut-1-en-1-yl)-N—((R)-3-oxo-2-(2,2,2-trifluoroethyl)isoxazolidin-4-yl)-2-(trifluoromethyl)benzamide] | 50 to 100 | 50 to 100 | A (80-100) |
| CN(CC(F)(F)F)C(=O)C1(NC(=O)c2ccc(/C(F)=C/C(c3ccc(Br)c(Br)c3)C(F)(F)F)cc2C(F)(F)F)CC1 (stereo not drawn) [F130, (Z)-4-(3-(3,4-Dibromophenyl)-1,4,4,4-tetrafluorobut-1-en-1-yl)-N-(1-(methyl(2,2,2-trifluoroethyl)carbamoyl)cyclopropyl)-2-(trifluoromethyl)benzamide] | 50 to 100 | 50 to 100 | A (80-100) |
| O=C(CNC(=O)c1ccc(/C(F)=C/C(c2cc(Cl)cc(Br)c2)C(F)(F)F)cc1C(F)(F)F)NCC(F)(F)F (stereo not drawn) [F122, (Z)-4-(3-(3-Bromo-5-chlorophenyl)-1,4,4,4-tetrafluorobut-1-en-1-yl)-N-(2-oxo-2-((2,2,2-trifluoroethyl)amino)ethyl)-2-(trifluoromethyl)benzamide] | 50 to 100 | 50 to 100 | B (More than 0-Less than 80) |
| O=C(CNC(=O)c1ccc(/C(F)=C/C(c2cc(Br)c(Cl)c(Br)c2)C(F)(F)F)cc1C(F)(F)F)NCC(F)(F)F (stereo not drawn) [F46, (Z)-4-(3-(3,5-Dibromo-4-chlorophenyl)-1,4,4,4-tetrafluorobut-1-en-1-yl)-N-(2-oxo-2-((2,2,2-trifluoroethyl)amino)ethyl)-2-(trifluoromethyl)benzamide] | 50 to 100 | 50 to 100 | A (80-100) |
| O=C(NC1(C(=O)NCC(F)(F)F)CC1)c1ccc(/C(F)=C/C(c2cc(Br)cc(Br)c2)C(F)(F)F)cc1C(F)(F)F (stereo not drawn) [F34, (Z)-4-(3-(3,5-dibromophenyl)-1,4,4,4-tetrafluorobut-1-en-1-yl)-N-(1-((2,2,2-trifluoroethyl)carbamoyl)cyclopropyl)-2-(trifluoromethyl)benzamide] | 50 to 100 | 50 to 100 | A (80-100) |
| O=C(NC1(C(=O)NCC(F)(F)F)CC1)c1ccc(/C(F)=C/C(c2ccc(Cl)c(F)c2)C(F)(F)F)cc1C(F)(F)F (stereo not drawn) [F136, (Z)-4-(3-(4-Chloro-3-fluorophenyl)-1,4,4,4-tetrafluorobut-1-en-1-yl)-N-(1-((2,2,2-trifluoroethyl)carbamoyl)cyclopropyl)-2-(trifluoromethyl)benzamide] | 50 to 100 | 50 to 100 | B (More than 0-Less than 80) |
| C[C@@H](NC(=O)c1ccc(/C(F)=C/C(c2ccc(F)c(Cl)c2)C(F)(F)F)cc1C(F)(F)F)C(=O)NCC(F)(F)F (stereo partly drawn) [F132, 4-((Z)-3-(3-Chloro-4-fluorophenyl)-1,4,4,4-tetrafluorobut-1-en-1-yl)-N—((R)-1-oxo-1-((2,2,2-trifluoroethyl)amino)propan-2-yl)-2-(trifluoromethyl)benzamide] | 50 to 100 | 50 to 100 | B (More than 0-Less than 80) |
